{"source": "patent US5821247A", "about": "“Hydroquinone derivative and pharmaceutical use thereof” (Japan Energy Corporation, priority 1996, dated 1998)", "key": {"[1]": {"test_system": "picryl chloride-induced dermatitis", "experiment": "Inhibition of picryl chloride-induced dermatitis (type IV allergic inflammation model, ear swelling, Asherson's method)", "format": "in vivo, ICR male mice", "conditions": "applied on ear just after challenge, ear thickness at 24 h", "procedure": "Evaluation 1: Inhibition of picryl chloride-induced dermatitis\nEffect of the compounds of the present invention on picryl chloride-induceddermatitis, which is a typical model of type IV allergic inflammation, was estimated by the Asherson's method [Immunology, 15, 405 (1968)] in the following manner.\nA 7% (w/v) solution of picryl chloride in acetone (0.1 mL) was applied on a portion of the abdominal skin of each of ICR male mice to sensitize the mice. After 7 days, a 1% (w/v) solution of picryl chloride in acetone (0.02 mL) was applied on the ears of the individual mice to induce allergic reaction. Just after the challenge, 0.04 mL of acetone (control) or a 0.25-2.5% (w/v) solution of the test compound in acetone was applied on the ear. Increase of the ear thickness of the individual mice was measured at 24 h after the challenge, and inhibitory effect of the test compound on the dermatitis was estimated based on the difference in ear thickness between before and after the induction of the allergic reaction."}, "albumin-induced asthma": {"test_system": "albumin-induced asthma", "experiment": "Inhibition of albumin-induced asthma (air way resistance, double flow plethysmography)", "format": "in vivo, Hartley male guinea pigs", "conditions": "100 mg/kg, orally 1 h before and 3 h after the challenge", "procedure": "Evaluation 2: Inhibition of albumin-induced asthma\nEffect of the compounds of the present invention on albumin-induced asthma was estimated in the following manner.\nInhalation of 1% ovalbumin using ultrasonic nebulizer into Hartley male guinea pigs was performed 10 min/day over 8 days to sensitize the guinea pigs. One week after the last sensitization, inhalation of 2% ovalbumin was performed for 5 min. to induce allergic reaction. Metyrapone (10 mg/kg, i.v.) was administered at 24 h and 1 h before the challenge, propylene glycol (control) or a solution of the test compound in propylene glycol was orally administered at 1 h before and 3 h after the challenge, and pyrilamine (10 mg/kg, i.p.) was intraperitoneally administered at 30 min before the challenge. Air way resistance was measured by double flow plethysmography at 1 min, 4 h, 5 h, 6 h, 7 h, and 8 h after the challenge, and inhibitory effect of the test compound on the asthma was estimated based on the measurements obtained."}, "[2]": {"experiment": "Metabolite found in plasma after oral administration of the compound of Example 1", "format": "in vivo", "conditions": "compound of Example 1 orally administered to guinea pig", "from_the_text": "The title compound was obtained by repeating substantially the same procedure as Example 1, except using 4-(3,5,6-trimethyl-1,4-benzoquinon-2-yl)-2-hydroxy-2-methylbutyric acid which had been prepared by oxidation of 6-hydroxy-2,5,7,8-tetramethylchroman-2-carboxylic acid with ammonium cerium (IV) nitrate (yield 62%)."}, "[3]": {"conditions": "concentration 0.25% (w/v) in acetone"}, "[4]": {"conditions": "concentration 0.75% (w/v) in acetone"}}, "data": [{"smiles": "Cc1c(C)c2c(c(C)c1O)CCC(C)(C(=O)Nc1c(N)n(-c3ccccc3)c(=O)n(C)c1=O)O2", "note": "(stereo not drawn) [Example 1, 6-Amino-5-(6-hydroxy-2,5,7,8-tetramethvlchroman-2-carboxamido)-3-methyl-1-phenyl-2,4 (1H. 3H)-pyrimidinedione]", "values": [{"measurement": "Inhibition (%) of picryl chloride-induced dermatitis", "setting": "[1]; [3]", "value": 69, "unit": "%"}, {"measurement": "inhibition on the air way reaction at 1 min after the challenge", "setting": "albumin-induced asthma; 1 min after the challenge", "value": 62, "unit": "%"}, {"measurement": "inhibition on the air way reaction (AUC) during 4-8 h after the challenge", "setting": "albumin-induced asthma; AUC 4-8 h", "value": 50, "unit": "%"}]}, {"smiles": "Cc1c(C)c2c(c(C)c1O)CC[C@](C)(C(=O)Nc1c(N)n(-c3ccccc3)c(=O)n(C)c1=O)O2", "note": "[Example 2]", "values": [{"measurement": "Inhibition (%) of picryl chloride-induced dermatitis", "setting": "[1]; [4]", "value": 65, "unit": "%"}]}, {"smiles": "Cc1c(C)c2c(c(C)c1O)CC[C@@](C)(C(=O)Nc1c(N)n(-c3ccccc3)c(=O)n(C)c1=O)O2", "note": "[Example 3, 6-Amino-5-(6-hydroxy-2,5,7,8-tetramethylchroman-2(S)-carboxamido)-3-methyl-1-phenyl-2,4 (1H, 3H) -pyrimidinedione]", "values": [{"measurement": "Inhibition (%) of picryl chloride-induced dermatitis", "setting": "[1]; [4]", "value": 69, "unit": "%"}]}, {"smiles": "CNc1c(NC(=O)C2(C)CCc3c(C)c(O)c(C)c(C)c3O2)c(=O)n(C)c(=O)n1-c1ccccc1", "note": "(stereo not drawn) [Example 11, 5-(6-Hydroxy-2,5,7,8-tetramethvlchroman-2-carboxamido)-3-methyl-6-methylamino-1-phenyl-2,4 (1H, 3H) -pyrimidinedione]", "values": [{"measurement": "Inhibition (%) of picryl chloride-induced dermatitis", "setting": "[1]; [4]", "value": 44, "unit": "%"}]}, {"smiles": "COc1c(C)c(C)c2c(c1C)CCC(C)(C(=O)Nc1c(N)n(-c3ccccc3)c(=O)n(C)c1=O)O2", "note": "(stereo not drawn) [Example 13, 6-Amino-5-(6-methoxy-2,5.7,8-tetramethylchroman-2-carboxamido)-3-methyl-1-phenyl-2,4 (1H, 3H)-pyrimidinedione]", "values": [{"measurement": "Inhibition (%) of picryl chloride-induced dermatitis", "setting": "[1]; concentration 2.50% (w/v) in acetone", "value": 33, "unit": "%"}]}, {"smiles": "CC(=O)Oc1c(C)c(C)c2c(c1C)CCC(C)(C(=O)Nc1c(N)n(-c3ccccc3)c(=O)n(C)c1=O)O2", "note": "(stereo not drawn) [Example 14, 5-(6-Acetoxy-2.5,7,8-tetramethvlchroman-2-carboxamido)-6-amino-3-methyl-1-phenyl-2,4 (1H, 3H)-pyrimidinedione]", "values": [{"measurement": "Inhibition (%) of picryl chloride-induced dermatitis", "setting": "[1]; [4]", "value": 53, "unit": "%"}]}, {"smiles": "CC1=C(C)C(=O)C(CCC(C)(O)C(=O)Nc2c(N)n(-c3ccccc3)c(=O)n(C)c2=O)=C(C)C1=O", "note": "(stereo not drawn) [Example 15, 6-Amino-3-methyl-1-phenyl-5-[4-(3,5,6-trimethyl-1,4-benzoquinon-2-yl)-2-hydroxy-2-methylbutyramido]-2,4 (1H, 3H)-pyrimidinedione]", "values": [{"measurement": "Inhibition (%) of picryl chloride-induced dermatitis", "setting": "[1]; [4]", "value": 70, "unit": "%"}, {"measurement": "found in plasma as metabolite of the compound of Example 1", "setting": "[2]", "value": "found in plasma a guinea pig as one of metabolites"}]}, {"smiles": "Cc1c(C)c2c(c(C)c1O)CCC(C)(CNc1c(N)n(-c3ccccc3)c(=O)n(C)c1=O)O2", "note": "(stereo not drawn) [Example 17, 6-Amino-5-[(6-hydroxy-2,5,7,8-tetramethyl-2-chromanylmethyl)amino]-3-methyl-1-phenyl-2,4 (1H, 3H) -pyrimidinedione]", "values": [{"measurement": "Inhibition (%) of picryl chloride-induced dermatitis", "setting": "[1]; [4]", "value": 80, "unit": "%"}]}, {"smiles": "CCCCN(Cc1c(N)n(-c2ccccc2)c(=O)n(C)c1=O)C(=O)C1(C)CCc2c(C)c(O)c(C)c(C)c2O1", "note": "(stereo not drawn) [Example 19, 6-Amino-5-(N-butyl-6-hydroxy-2,5,7,8-tetramethylchroman-2-carboxamidomethyl)-3-methyl-1-phenyl-2,4 (1H, 3H)-pyrimidinedione]", "values": [{"measurement": "Inhibition (%) of picryl chloride-induced dermatitis", "setting": "[1]; [3]", "value": 49, "unit": "%"}]}]}
